Results as given in publication PMC3266168 (Journal of Medicinal Chemistry, 2011).
In brackets after ≈: the same amount, converted by molar mass.

What was measured:
[1] = molecular target: F. tularensis FabI (Francisella tularensis subsp. tularensis, UniProt Q5NGQ3); assay type: biochemical
[2] = system: F. tularensis; experiment: microbe, parasite or virus in culture; assay type: cell-based; details: Francisella tularensis
[3] = system: E.coli (BW251113); assay type: cell-based
[4] = system: E.coli TolC mutant (BW251113-TolC-); assay type: cell-based

F. tularensis FabI, sequence (Q5NGQ3 1-260): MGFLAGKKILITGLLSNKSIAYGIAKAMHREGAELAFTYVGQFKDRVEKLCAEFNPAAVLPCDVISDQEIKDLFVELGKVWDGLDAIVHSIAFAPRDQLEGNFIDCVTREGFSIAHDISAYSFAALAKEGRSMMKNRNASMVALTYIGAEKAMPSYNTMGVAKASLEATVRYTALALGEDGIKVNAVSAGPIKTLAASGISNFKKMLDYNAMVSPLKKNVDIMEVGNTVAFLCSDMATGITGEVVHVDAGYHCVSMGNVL

Compound | L.E. (Ligand Efficiency) [1] | fold increase in activity (IC50) over hit compound 2 [1] [fold] | MIC [2] [µg/mL] | MIC [3] | MIC [4]
Nc1ncc(Cc2ccc(Cl)cc2)s1 [Compound 1] | 0.41 |  |  |  | 
Clc1ccc(Cn2cnc3ccccc32)cc1 [Compound 2, 1-(4-chlorobenzyl) benzimidazole] | 0.37 |  |  |  | 
Clc1ccc(Cn2cnc3ccccc32)cc1Cl [Compound 6] |  | ~10 | 15.6 (≈ 56.3 µM) |  | 
Cc1cc2ncn(Cc3ccc(Cl)c(Cl)c3)c2cc1C [Compound 9] |  | 100 |  | >200 (3) μg/mL | 6.25 (3) μg/mL
